The NIST ThermoML archive (doi:10.1021/je0503251)
Numbers after ± are expanded uncertainties.

Conditions: Liquid, Closed cell (Static) method

Q: Which “vapor or sublimation pressure” value (283.13 K) does the source give for COCOC [dimethoxymethane] here?
A: Its value is 27.73 ± 1.4 kPa.

Q: And the “vapor or sublimation pressure” value (285.13 K)?
A: The value was 30.39 ± 1.4 kPa.

Q: And the “vapor or sublimation pressure” value (288.11 K)?
A: Its value is 34.73 ± 1.4 kPa.

Q: What about the “vapor or sublimation pressure” value (293.07 K) of the same compound?
A: The value was 43.08 ± 1.4 kPa.

Q: What about the “vapor or sublimation pressure” value (295.07 K) of the same compound?
A: The value was 46.83 ± 1.4 kPa.

Q: What about the “vapor or sublimation pressure” value (298.07 K) of the same compound?
A: Its value is 52.94 ± 1.4 kPa.

Q: What about the “vapor or sublimation pressure” value (300.07 K) of the same compound?
A: Its value is 57.14 ± 1.4 kPa.

Q: What about the “vapor or sublimation pressure” value (303.05 K) of the same compound?
A: The value was 64.26 ± 1.4 kPa.

Q: And the “vapor or sublimation pressure” value (305.05 K)?
A: The value was 69.42 ± 1.4 kPa.

Q: What about the “vapor or sublimation pressure” value (308.05 K) of the same compound?
A: The value was 77.74 ± 1.4 kPa.

Q: What about the “vapor or sublimation pressure” value (310.07 K) of the same compound?
A: The value was 83.8 ± 1.4 kPa.

Q: What about the “vapor or sublimation pressure” value (313.16 K) of the same compound?
A: Its value is 93.85 ± 1.4 kPa.

Q: What about the “vapor or sublimation pressure” value (318.13 K) of the same compound?
A: The value was 111.95 ± 1.4 kPa.

Q: What about the “vapor or sublimation pressure” value (323.17 K) of the same compound?
A: Its value is 132.98 ± 1.4 kPa.

Q: What about the “vapor or sublimation pressure” value (325.18 K) of the same compound?
A: The value was 142.06 ± 1.4 kPa.

Q: What about the “vapor or sublimation pressure” value (328.17 K) of the same compound?
A: Its value is 156.44 ± 1.4 kPa.

Q: What about the “vapor or sublimation pressure” value (330.17 K) of the same compound?
A: The value was 166.67 ± 1.4 kPa.

Q: What about the “vapor or sublimation pressure” value (333.17 K) of the same compound?
A: The value was 182.96 ± 1.4 kPa.

Q: And the “vapor or sublimation pressure” value (335.17 K)?
A: The value was 194.47 ± 1.4 kPa.

Q: And the “vapor or sublimation pressure” value (338.16 K)?
A: The value was 212.79 ± 1.4 kPa.

Q: What about the “vapor or sublimation pressure” value (340.16 K) of the same compound?
A: Its value is 225.73 ± 1.4 kPa.

Q: And the “vapor or sublimation pressure” value (343.16 K)?
A: The value was 246.24 ± 1.4 kPa.

Q: And the “vapor or sublimation pressure” value (345.16 K)?
A: Its value is 260.68 ± 1.4 kPa.

Q: What about the “vapor or sublimation pressure” value (348.16 K) of the same compound?
A: The value was 283.65 ± 1.5 kPa.

Q: What about the “vapor or sublimation pressure” value (353.16 K) of the same compound?
A: Its value is 325.16 ± 1.5 kPa.

Q: And the “vapor or sublimation pressure” value (358.16 K)?
A: The value was 371.53 ± 1.5 kPa.

Q: What about the “vapor or sublimation pressure” value (363.16 K) of the same compound?
A: The value was 421.82 ± 1.5 kPa.

Q: And the “vapor or sublimation pressure” value (368.16 K)?
A: The value was 477.61 ± 1.6 kPa.

Q: And the “vapor or sublimation pressure” value (373.15 K)?
A: The value was 538.51 ± 1.6 kPa.

Q: What about the “vapor or sublimation pressure” value (378.16 K) of the same compound?
A: The value was 605.33 ± 1.6 kPa.

Q: And the “vapor or sublimation pressure” value (383.13 K)?
A: The value was 677.68 ± 1.7 kPa.

Q: And the “vapor or sublimation pressure” value (388.15 K)?
A: Its value is 757.05 ± 1.8 kPa.

Q: And the “vapor or sublimation pressure” value (393.16 K)?
A: The value was 842.82 ± 1.9 kPa.

Q: And the “vapor or sublimation pressure” value (398.15 K)?
A: Its value is 935.48 ± 1.9 kPa.

Q: For FC(F)CC(F)(F)F [1,1,1,3,3-pentafluoropropane], which “vapor or sublimation pressure” value (253.12 K) is on record?
A: Its value is 19.34 ± 0.7 kPa.

Q: And the “vapor or sublimation pressure” value (258.16 K)?
A: The value was 25.37 ± 0.7 kPa.

Q: And the “vapor or sublimation pressure” value (263.13 K)?
A: Its value is 32.79 ± 0.7 kPa.

Q: And the “vapor or sublimation pressure” value (268.12 K)?
A: The value was 41.88 ± 0.7 kPa.

Q: What about the “vapor or sublimation pressure” value (273.12 K) of the same compound?
A: Its value is 52.91 ± 0.71 kPa.

Q: And the “vapor or sublimation pressure” value (278.12 K)?
A: The value was 66.17 ± 0.71 kPa.

Q: What about the “vapor or sublimation pressure” value (283.15 K) of the same compound?
A: The value was 82.07 ± 0.71 kPa.

Q: And the “vapor or sublimation pressure” value (285.14 K)?
A: The value was 89.11 ± 0.71 kPa.

Q: And the “vapor or sublimation pressure” value (288.12 K)?
A: Its value is 100.56 ± 0.72 kPa.

Q: And the “vapor or sublimation pressure” value (293.09 K)?
A: The value was 122.2 ± 0.72 kPa.

Q: What about the “vapor or sublimation pressure” value (295.08 K) of the same compound?
A: The value was 131.93 ± 0.73 kPa.

Q: What about the “vapor or sublimation pressure” value (298.06 K) of the same compound?
A: The value was 147.46 ± 0.73 kPa.

Q: And the “vapor or sublimation pressure” value (303.06 K)?
A: The value was 177.01 ± 0.75 kPa.

Q: And the “vapor or sublimation pressure” value (305.05 K)?
A: The value was 190.2 ± 0.76 kPa.

Q: And the “vapor or sublimation pressure” value (308.05 K)?
A: The value was 210.95 ± 0.77 kPa.

Q: And the “vapor or sublimation pressure” value (310.09 K)?
A: Its value is 225.91 ± 0.78 kPa.

Q: And the “vapor or sublimation pressure” value (313.1 K)?
A: Its value is 249.94 ± 0.79 kPa.

Q: What about the “vapor or sublimation pressure” value (315.08 K) of the same compound?
A: Its value is 266.8 ± 0.8 kPa.

Q: And the “vapor or sublimation pressure” value (318.12 K)?
A: Its value is 294.26 ± 0.82 kPa.

Q: And the “vapor or sublimation pressure” value (320.17 K)?
A: The value was 312.44 ± 0.84 kPa.

Q: What about the “vapor or sublimation pressure” value (323.16 K) of the same compound?
A: Its value is 343.03 ± 0.86 kPa.

Q: What about the “vapor or sublimation pressure” value (325.16 K) of the same compound?
A: The value was 364.63 ± 0.88 kPa.

Q: What about the “vapor or sublimation pressure” value (328.16 K) of the same compound?
A: The value was 398.98 ± 0.91 kPa.

Q: What about the “vapor or sublimation pressure” value (330.16 K) of the same compound?
A: The value was 423.22 ± 0.93 kPa.

Q: And the “vapor or sublimation pressure” value (333.16 K)?
A: Its value is 461.65 ± 0.97 kPa.

Q: And the “vapor or sublimation pressure” value (338.16 K)?
A: The value was 531.78 ± 1 kPa.

Q: And the “vapor or sublimation pressure” value (343.16 K)?
A: Its value is 609.29 ± 1.1 kPa.

Q: What about the “vapor or sublimation pressure” value (345.16 K) of the same compound?
A: Its value is 642.58 ± 1.2 kPa.

Q: What about the “vapor or sublimation pressure” value (348.16 K) of the same compound?
A: The value was 695.02 ± 1.2 kPa.

Q: And the “vapor or sublimation pressure” value (353.16 K)?
A: Its value is 789.45 ± 1.3 kPa.

Q: And the “vapor or sublimation pressure” value (358.16 K)?
A: The value was 893.28 ± 1.5 kPa.

Q: What about the “vapor or sublimation pressure” value (363.16 K) of the same compound?
A: Its value is 1007 ± 1.6 kPa.

Q: What about the “vapor or sublimation pressure” value (368.13 K) of the same compound?
A: Its value is 1130.3 ± 1.8 kPa.

Q: And the “vapor or sublimation pressure” value (373.13 K)?
A: Its value is 1265.7 ± 2 kPa.

Q: What about the “vapor or sublimation pressure” value (378.16 K) of the same compound?
A: Its value is 1413.6 ± 2.2 kPa.

Q: What about the “vapor or sublimation pressure” value (383.15 K) of the same compound?
A: The value was 1573.3 ± 2.5 kPa.

Q: And the “vapor or sublimation pressure” value (388.14 K)?
A: The value was 1745.4 ± 2.7 kPa.

Q: And the “vapor or sublimation pressure” value (393.14 K)?
A: Its value is 1932.2 ± 3 kPa.

Q: What about the “vapor or sublimation pressure” value (398.12 K) of the same compound?
A: Its value is 2133.2 ± 3.3 kPa.

Q: And the “vapor or sublimation pressure” value (403.07 K)?
A: The value was 2348.2 ± 3.7 kPa.
